Experimental findings from ChEMBL document CHEMBL1139447, “Discovery of novel PTP1b inhibitors” (Bioorg Med Chem Lett, 2004) are described below.

The nature of this test: Compound was tested for inhibition of Protein tyrosine phosphatase (PTP1B).
In general, IC50 refers to the concentration that inhibits the measured activity by half. Read a high IC50 as lower potency. By Kd is commonly meant a measure of binding affinity in units of concentration. A high value points to a looser complex. Take `O=c1c(O)c(-c2ccccc2)c1=O`: the IC50 stood at 60 µM and the Kd turned out to be 25 µM.
`O=CCCc1ccccc1` [DIHYDROCINNAMALDEHYDE] returned an IC50 of over 300 µM and a Kd of 150 µM.
Compound `O=Cc1ccccn1` [2-PYRIDINECARBOXALDEHYDE] registered an IC50 of over 300 µM and a Kd of 100 µM.
